T/C data for 20 compounds are collected here from PubChem BioAssay AID328 (DTP/NCI, 2004).

This experiment has as its system BDF1 mice, P388 leukemia ip, median survival T/C. As to the kind of experiment: NCI In Vivo Anticancer Drug Screen. Data for tumor model P388 Leukemia (intraperitoneal) in B6D2F1 (BDF1) mice. Conditions: endpoint: median survival time, higher = longer survival. Summed up:
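Mice carrying the transplantable tumour receive compound or vehicle. Survival is followed in each arm, and the treated measure is divided by the vehicle measure.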

Setting [1] is: dose: 25.0 mg/kg/injection, schedule: Q01DX009 (ip), vehicle: saline with Tween-80.
Where [2] appears, read: dose: 50.0 mg/kg/injection, schedule: Q01DX009 (ip), vehicle: saline with Tween-80.
Where [3] appears, read: dose: 200.0 mg/kg/injection, schedule: Q01DX009 (ip), vehicle: saline with Tween-80.
The mark [4] stands for this setting: dose: 50.0 mg/kg/injection, schedule: Q04DX003 (ip), vehicle: saline.
Where [5] appears, read: dose: 100.0 mg/kg/injection, schedule: Q04DX003 (ip), vehicle: saline.
Setting [6] is: dose: 200.0 mg/kg/injection, schedule: Q04DX003 (ip), vehicle: saline.
The mark [7] stands for this setting: dose: 400.0 mg/kg/injection, schedule: Q01DX009 (ip), vehicle: saline.
The mark [8] stands for this setting: dose: 400.0 mg/kg/injection, schedule: Q04DX003 (ip), vehicle: saline.
[9] abbreviates: dose: 100.0 mg/kg/injection, schedule: Q01DX009 (ip), vehicle: saline with Tween-80.
[10] abbreviates: dose: 100.0 mg/kg/injection, schedule: Q01DX009 (ip), vehicle: Klucel (hydroxypropylcellulose) (HPC).
The mark [11] stands for this setting: dose: 200.0 mg/kg/injection, schedule: Q01DX009 (ip), vehicle: Klucel (hydroxypropylcellulose) (HPC).
Setting [12] is: dose: 100.0 mg/kg/injection, schedule: Q01DX001 (ip), vehicle: Klucel (hydroxypropylcellulose) (HPC).
Where [13] appears, read: dose: 200.0 mg/kg/injection, schedule: Q01DX001 (ip), vehicle: Klucel (hydroxypropylcellulose) (HPC).
Setting [14] is: dose: 400.0 mg/kg/injection, schedule: Q01DX001 (ip), vehicle: Klucel (hydroxypropylcellulose) (HPC).

Molecules are shown by their SMILES. Values joined by “and” are separate entries in the source; they are usually repeats but may differ in a detail not shown here. Identical values can stand only once. Inconclusive results and toxic doses are left out.

`COC(CN1C(=O)CSC1=S)OC`: the T/C is, setting by setting: under setting [1], 100 % of control; under setting [2], 104 % of control and 117 % of control; under setting [3], 109 % of control.
On to `C[N+]1(Cc2c[nH]c3ccsc23)CCCCC1`, for which the T/C by setting is: (dose: 3.0 mg/kg/injection, schedule: Q01DX009 (ip), vehicle: saline with Tween-80) 87 % of control; (dose: 3.0 mg/kg/injection, schedule: Q04DX003 (ip), vehicle: saline with Tween-80) 104 % of control; (dose: 6.0 mg/kg/injection, schedule: Q01DX009 (ip), vehicle: saline with Tween-80) 91 % of control; (dose: 6.0 mg/kg/injection, schedule: Q04DX003 (ip), vehicle: saline with Tween-80) 104 % of control; (dose: 12.0 mg/kg/injection, schedule: Q01DX009 (ip), vehicle: saline with Tween-80) 100 % of control; (dose: 12.0 mg/kg/injection, schedule: Q04DX003 (ip), vehicle: saline with Tween-80) 100 % of control.
For `O=C(COc1cc(Cl)c(Cl)cc1Cl)OCCN(CCOC(=O)COc1cc(Cl)c(Cl)cc1Cl)C(=O)COc1ccc(Cl)cc1`, the T/C was 100 % of control (dose: 100.0 mg/kg/injection, schedule: Q04DX003 (ip), vehicle: other); 86 % of control (dose: 200.0 mg/kg/injection, schedule: Q04DX003 (ip), vehicle: other); 100 % of control (dose: 400.0 mg/kg/injection, schedule: Q04DX003 (ip), vehicle: other).
As for `Cc1cc(NC(=O)NCc2ccc(N)cc2)ccc1S(=O)(=O)F`, the T/C by setting is: (dose: 25.0 mg/kg/injection, schedule: Q01DX009 (ip), vehicle: saline) 97 % of control; (dose: 50.0 mg/kg/injection, schedule: Q01DX009 (ip), vehicle: saline) 109 % of control; under setting [4], 102 % of control; (dose: 75.0 mg/kg/injection, schedule: Q01DX009 (ip), vehicle: saline) 115 % of control; (dose: 100.0 mg/kg/injection, schedule: Q01DX009 (ip), vehicle: saline) 90 % of control and 124 % of control; under setting [5], 102 % of control. Further, the T/C by setting is: (dose: 150.0 mg/kg/injection, schedule: Q01DX009 (ip), vehicle: saline) 92 % of control; (dose: 200.0 mg/kg/injection, schedule: Q01DX009 (ip), vehicle: saline) 106 % of control; under setting [6], 100 % of control; under setting [7], 99 % of control; under setting [8], 97 % of control.
Regarding `COc1cc2c(c3oc(=O)ccc13)C(=O)CC(C)(C)O2`, the T/C is, setting by setting: (dose: 50.0 mg/kg/injection, schedule: Q01DX001 (ip), vehicle: saline) 108 % of control; (dose: 100.0 mg/kg/injection, schedule: Q01DX001 (ip), vehicle: saline) 100 % of control; (dose: 200.0 mg/kg/injection, schedule: Q01DX001 (ip), vehicle: saline) 104 % of control.
For `OC(CCl)C(O)C(O)C(O)CCl` (centres undefined), the T/C under setting [9] is 100 % of control; the T/C under setting [3] was 113 % of control; the T/C (dose: 400.0 mg/kg/injection, schedule: Q01DX009 (ip), vehicle: saline with Tween-80) was 100 % of control.
`O=C(CSc1ccccc1)NCc1cnccn1`: the T/C reads like this: under setting [4], 108 % of control; under setting [5], 92 % of control; under setting [6], 104 % of control; under setting [8], 100 % of control.
With `CC(=O)O[C@@]1(C)C(=O)OCC2=CCN3CC[C@@H](OC(=O)[C@H](C)[C@]1(C)OC(C)=O)[C@@H]23`, the T/C is, setting by setting: (dose: 25.0 mg/kg/injection, schedule: Q01DX010 (ip), vehicle: carboxymethylcellulose (CMC)) 105 % of control; (dose: 50.0 mg/kg/injection, schedule: Q01DX010 (ip), vehicle: carboxymethylcellulose (CMC)) 90 % of control.
For `CN(C)c1ccc(/C=C\C(=O)c2ccccc2)cc1`, the T/C runs as follows: under setting [10], 100 % of control; under setting [11], 110 % of control; (dose: 400.0 mg/kg/injection, schedule: Q01DX009 (ip), vehicle: Klucel (hydroxypropylcellulose) (HPC)) 120 % of control.
Take `CC(=O)Nc1ccc2c(c1)C(N)c1ccccc1-2` (centres undefined): the T/C was 100 % of control under setting [2]; 104 % of control under setting [9]; 95 % of control (dose: 133.0 mg/kg/injection, schedule: Q01DX009 (ip), vehicle: Klucel (hydroxypropylcellulose) (HPC)); 105 % of control under setting [11]; 87 % of control under setting [3]; 100 % of control (dose: 300.0 mg/kg/injection, schedule: Q01DX009 (ip), vehicle: Klucel (hydroxypropylcellulose) (HPC)).
In the case of `CC1OC(O[C@H]2/C=C/C=C/C=C/C=C/C=C/C=C/C=C/[C@H](C)[C@@H](O)[C@@H](C)[C@H](C)OC(=O)C[C@H](O)C[C@H](O)CC[C@@H](O)[C@H](O)C[C@H](O)C[C@]3(O)C[C@H](O)[C@@H](C(=O)O)[C@H](C2)O3)C(O)C(N)C1O` (some centres undefined), the T/C (dose: 20.0 mg/kg/injection, schedule: Q04DX003 (ip), vehicle: clinical formulation) was 109 % of control and the T/C (dose: 40.0 mg/kg/injection, schedule: Q04DX003 (ip), vehicle: clinical formulation) was 97 % of control.
Take `C[C@@H]1C[C@H]2C(=CC1=O)CC[C@@H]1[C@@H]2CC[C@@]2(C)[C@H]1CC[C@]2(C)O`: the T/C was 95 % of control (dose: 50.0 mg/kg/injection, schedule: Q01DX009 (ip), vehicle: Klucel (hydroxypropylcellulose) (HPC)); 91 % of control (dose: 50.0 mg/kg/injection, schedule: Q04DX003 (ip), vehicle: Klucel (hydroxypropylcellulose) (HPC)); 87 % of control under setting [10]; 91 % of control and 103 % of control (dose: 100.0 mg/kg/injection, schedule: Q04DX003 (ip), vehicle: Klucel (hydroxypropylcellulose) (HPC)); 108 % of control under setting [11]; 96 % of control and 100 % of control (dose: 200.0 mg/kg/injection, schedule: Q04DX003 (ip), vehicle: Klucel (hydroxypropylcellulose) (HPC)).
Turning to `CCOc1ccc2[nH]c(=S)sc2c1`, the T/C by setting is: under setting [12], 116 % of control; under setting [13], 91 % of control; under setting [14], 95 % of control.
For the compound `COC(=O)CCCCCCCCC(C)c1ccccc1` (centres undefined), the T/C is 110 % of control (dose: 264.0 mg/kg/injection, schedule: Q01DX009 (ip), vehicle: saline) and 110 % of control under setting [7].
For `NC1(C(=O)O)CCCc2ccc(N(CCCl)CCCl)cc21` (centres undefined), the T/C was 263 % of control and 272 % of control (dose: 16.5 mg/kg/injection, schedule: Q04DX003 (ip), vehicle: saline with Tween-80); 272 % of control (dose: 25.0 mg/kg/injection, schedule: Q04DX003 (ip), vehicle: saline with Tween-80); 177 % of control (dose: 37.5 mg/kg/injection, schedule: Q04DX003 (ip), vehicle: saline with Tween-80).
Consider `O=C(NCCN1CC1)C(=O)NCCN1CC1`, for which the T/C is 250 % of control (dose: 1.56 mg/kg/injection, schedule: Q04DX003 (ip), vehicle: saline with Tween-80); 173 % of control (dose: 3.12 mg/kg/injection, schedule: Q04DX003 (ip), vehicle: saline with Tween-80); 105 % of control (dose: 6.25 mg/kg/injection, schedule: Q04DX003 (ip), vehicle: saline with Tween-80).
For `O=C(NC1=NN(c2ccccc2)C(=O)C1)Nc1ccccc1`, the T/C was 110 % of control (dose: 87.5 mg/kg/injection, schedule: Q01DX009 (ip), vehicle: saline with Tween-80) and 103 % of control (dose: 175.0 mg/kg/injection, schedule: Q01DX009 (ip), vehicle: saline with Tween-80).
With `COc1ccc(CCN2C(=O)CSC2=S)cc1OC`, the T/C under setting [12] is 90 % of control, the T/C under setting [13] was 100 % of control and the T/C under setting [14] is 90 % of control.
Take `Cc1ccc2[nH]c(=S)[nH]c(=S)c2c1`: the T/C is, setting by setting: (dose: 100.0 mg/kg/injection, schedule: Q04DX003 (ip), vehicle: saline with Tween-80) 108 % of control; (dose: 200.0 mg/kg/injection, schedule: Q04DX003 (ip), vehicle: saline with Tween-80) 95 % of control; (dose: 400.0 mg/kg/injection, schedule: Q04DX003 (ip), vehicle: saline with Tween-80) 108 % of control.
For `CN(C)c1ccc(N(C)C)c(C(O)(c2ccccc2)c2ccccc2)c1`, the T/C (dose: 12.5 mg/kg/injection, schedule: Q01DX009 (ip), vehicle: saline with Tween-80) is 95 % of control; the T/C under setting [1] is 93 % of control; the T/C under setting [2] is 95 % of control.
